These results are taken from publication PMC5384110 (European journal of medicinal chemistry, 2017).

Where only a bound is given, the exact number is not on record here.

What all share (assay type): biochemical, HIV-1
The target of one assay is RT mutant K103N (Human immunodeficiency virus type 1 group M subtype B, UniProt P04585, K690N). Kind of assay: RT pol assay against RT mutant K103N.
Assay [1] deals with HIV integrase strand transfer (INST) (Human immunodeficiency virus type 1 group M subtype B, UniProt P04585). Kind of assay: INST assay.
For another assay, the target named is RT mutant Y181C (Human immunodeficiency virus type 1 group M subtype B, UniProt P04585, Y768C). As to the kind of experiment: RT pol assay against RT mutant Y181C.
The target in a further assay is HIV RT pol (Human immunodeficiency virus type 1 group M subtype B, UniProt P04585). As to the kind of experiment: RT pol assay. Particulars: Table 1; mean ± SD, at least two independent experiments.
Another assay concerns the target HIV RT RNase H (Human immunodeficiency virus type 1 group M subtype B, UniProt P04585). Kind of assay: RNase H assay. As to conditions: read-out: RT IC50 RNH; Table 2; 3-deoxy precursor 11; tested up to 10 μM.

The IC50 is the concentration needed to halve the response being measured. With `CC(C)c1c(CC2CCCCC2)n(COCc2ccccc2)c(=O)n(O)c1=O` [4a, 1-((Benzyloxy)methyl)-6-(cyclohexylmethyl)-3-hydroxy-5-isopropylpyrimidine-2,4(1H,3H)-dione], the figures for the IC50 (at RT mutant K103N; in assay [1]; against RT mutant Y181C) were over 10 µM, over 100 µM and over 10 µM, respectively.
For `CC(C)c1c(CC2CCCCC2)n(COCc2ccc(F)cc2)c(=O)n(O)c1=O` [4b, 6-(Cyclohexylmethyl)-1-(((4-fluorobenzyl)oxy)methyl)-3-hydroxy-5-isopropylpyrimidine-2,4(1H,3H)-dione], in assay [1], the IC50 is over 100 µM.
In the case of `CCc1c(CC2CCCCC2)n(COCc2ccccc2)c(=O)n(O)c1=O` [4c, 1-((Benzyloxy)methyl)-6-(cyclohexylmethyl)-5-ethyl-3-hydroxypyrimidine-2,4(1H,3H)-dione], in assay [1], the IC50 is over 100 µM.
The molecule `CCc1c(CC2CCCCC2)n(COCc2ccc(F)cc2)c(=O)n(O)c1=O` [4d, 6-(Cyclohexylmethyl)-5-ethyl-1-(((4-fluorobenzyl)oxy)methyl)-3-hydroxypyrimidine-2,4(1H,3H)-dione] had a half-maximal inhibitory concentration (IC50) in assay [1] of over 100 µM.
On to `CCc1c(CC2CCCCC2)n(COCc2cccc(Cl)c2F)c(=O)n(O)c1=O` [4e, 1-(((3-Chloro-2-fluorobenzyl)oxy)methyl)-6-(cyclohexylmethyl)-5-ethyl-3-hydroxypyrimidine-2,4(1H,3H)-dione], for which the IC50 in assay [1] was over 100 µM.
For `CCc1c(CC2CCCCC2)n(COCc2ccc(F)c(F)c2)c(=O)n(O)c1=O` [4f, 6-(Cyclohexylmethyl)-1-(((3,4-difluorobenzyl)oxy)methyl)-5-ethyl-3-hydroxypyrimidine-2,4(1H,3H)-dione], in assay [1], the half-inhibitory concentration (IC50) was over 100 µM. For the same molecule, the “RT IC50 Pol” value on HIV RT pol is “did not inhibit RT pol”.
In turn, `CCc1c(CC2CCCCC2)n(COCc2ccc(C(F)(F)F)cc2)c(=O)n(O)c1=O` [4g, 6-(Cyclohexylmethyl)-5-ethyl-3-hydroxy-1-(((4-(trifluoromethyl)benzyl)oxy)methyl)pyrimidine-2,4(1H,3H)-dione] came in with an IC50 in assay [1] of over 100 µM.
As to `CCc1c(CC2CCCCC2)n(COCc2ccc(C)cc2)c(=O)n(O)c1=O` [4h, 6-(Cyclohexylmethyl)-5-ethyl-3-hydroxy-1-(((4-methylbenzyl)oxy)methyl) pyrimidine-2,4(1H,3H)-dione], the 50% inhibitory concentration (IC50) in assay [1] was over 100 µM.
As for `Cc1c(CC2CCCCC2)n(COCc2ccccc2)c(=O)n(O)c1=O` [4i, 1-((Benzyloxy)methyl)-6-(cyclohexylmethyl)-3-hydroxy-5-methylpyrimidine-2,4(1H,3H)-dione], the concentration for half-maximal inhibition (IC50) in assay [1] is over 100 µM.
`Cc1c(CC2CCCCC2)n(COCc2cccc(Cl)c2F)c(=O)n(O)c1=O` [4j, 1-(((3-Chloro-2-fluorobenzyl)oxy)methyl)-6-(cyclohexylmethyl)-3-hydroxy-5-methylpyrimidine-2,4(1H,3H)-dione] yielded an IC50 in assay [1] of over 100 µM.
For the molecule `Cc1c(CC2CCCCC2)n(COCc2ccc(F)c(F)c2)c(=O)n(O)c1=O` [4k, 6-(Cyclohexylmethyl)-1-(((3,4-difluorobenzyl)oxy)methyl)-3-hydroxy-5-methyl pyrimidine-2,4(1H,3H)-dione], the IC50 in assay [1] is over 100 µM.
`Cc1c(CC2CCCCC2)n(COCc2ccc(C(F)(F)F)cc2)c(=O)n(O)c1=O` [4l, 6-(Cyclohexylmethyl)-3-hydroxy-5-methyl-1-(((4-(trifluoromethyl)benzyl)oxy)methyl)pyrimidine-2,4(1H,3H)-dione]: the IC50 in assay [1] was over 100 µM.
In turn, `Cc1c(CC2CCCCC2)n(COCCc2ccc(F)cc2)c(=O)n(O)c1=O` [4m, 6-(Cyclohexylmethyl)-1-((4-fluorophenethoxy)methyl)-3-hydroxy-5-methyl pyrimidine-2,4(1H,3H)-dione] showed an IC50 in assay [1] of over 100 µM.
With `CC(C)c1c(Cc2ccccc2)n(COCc2ccccc2)c(=O)[nH]c1=O` [compound 14, TNK-651], at HIV RT RNase H, the IC50 is over 10 µM.
